According to patent US20250228882A1, “ORALLY-BIOAVAILABLE NUCLEOSIDE ANALOGS” (Venatorx Pharmaceuticals, Inc., priority 2022, published 2025):
Read-outs that look alike come from different tables or passages of the source.

Assay: Bidirectional Caco-2 permeability assay
Type: in vitro ADME
Conditions: human
Description: The bidirectional permeability of compounds across the Caco-2 cell monolayer was assessed. The Caco-2 model is a widely used in vitro model for small intestinal absorption and potential for efflux. Cell culture. Caco-2 cells were grown in DMEM supplemented with 10% fetal bovine serum (FBS), 1% Penicillin-Streptomycin and 1% MEMNEAA. The cells were incubated at 37° C., 5% CO2/95% air and saturated humidity. After reaching 80-90% confluency, the cells were gently detached with trypsin. Cells at passage 39 were seeded on the 24-well BD insert system at the density of 8×10^4 cells/cm^2 and cultured for 19 days with medium changed every 2-3 days. Measure the transepithelial electrical resistance (TEER) value of each well. The wells can be used only when their TEER values are greater than 600 Ohms/cm^2.
Transport assay. After removing the cell culture medium from the 24-well insert plate, the cells were rinsed with warm transport buffer. Appropriate dosing and receiving solutions were applied to the donor and receiver chambers to initiate the transport assay in apical to basolateral (A to B) or basolateral to apical (B to A) directions (500 and 1300 μL for apical and basolateral wells, respectively). Duplicate wells in each direction were used for the test compound and control compound. The plate was incubated in CO2 incubator at 37° C., with 5% CO2/95% air and saturated humidity without shaking. The sample after 10-minute incubation was used as the To sample, and the sample after 90-minute incubation was used as the T90 sample. To and T90 samples were collected from the donor and receiver side of each well at the designed timepoint, mixed with the transport buffer and acetonitrile/MeOH (1:1, v/v) and the internal standard for LC/MS/MS analysis. All samples were vortexed and centrifuged at 4000 rpm at 4° C. for 15 minutes, diluted with pure water and stored at 4° C. before bioanalysis by LC/MS/MS.
Sample analysis. The concentrations of test compounds and control compounds in Caco-2 cells were quantitatively determined by LC/MS/MS method after protein precipitation.
Calculations. The apparent permeability (Papp, cm/s), efflux ratio (ER) and recovery parameters were calculated for Caco-2 drug transport assay using the following equations: […]
where VR is the solution volume in the receiver chamber (0.4 mL on the apical side, 1.2 mL on the basolateral side); Area is the surface area for the insert membrane, i.e., 0.3 cm^2 for the area of the monolayer; Time is incubation time, expressed in seconds, i. e., 5400 s (90 min) for the current experiment; Co is the initial concentration of test compound or peak area ratio of control compounds in the donor chamber (M); VD is the volume in the donor chambers (0.4 mL on the apical side, 1.2 mL on the basolateral side); CD and CR are the final concentrations of test compounds or peak area ratio of control compounds in donor and receiver chambers, respectively.
Compounds with Papp<1.0 are classified as low permeability, Papp between 1-10 are classified as medium permeability, and Papp>10 are classified as high permeability. An efflux ratio (ER)>2 indicates the compounds are potential substrates for intestinal cell efflux transporters.

[1] = Caco-2 monolayer, apical to basolateral, 90-minute incubation, read-out: Papp, A-B
[2] = Caco-2 monolayer, basolateral to apical, 90-minute incubation, read-out: Papp, B-A
[3] = Caco-2 monolayer, ER>2 indicates potential efflux substrate, read-out: ER (efflux ratio)

With `CCC(CC)C(=O)Nc1ncnn2c([C@]3(C#N)O[C@H](COC(=O)CC4CCCCC4)[C@@H](OC(=O)[C@H](N)C(C)(C)C)[C@H]3O)ccc12` [Compound 69, (2R,3S,4R,5R)-5-cyano-2-((2-cyclohexylacetoxy)methyl)-5-(4-(2-ethylbutanamido)pyrrolo[2,1-f][1,2,4]triazin-7-yl)-4-hydroxytetrahydrofuran-3-yl (R)-2-amino-3,3-dimethylbutanoate] the Papp A→B at 90 min (Caco-2) was 3.19 ×10⁻⁶ cm/s, the Papp B→A at 90 min (Caco-2) was 4.38 ×10⁻⁶ cm/s and the efflux ratio at 90 min (Caco-2) was 1.37.

Work on `CCCCC(=O)Nc1ncnn2c([C@]3(C#N)O[C@H](COC(=O)CC4CCC4)[C@@H](OC(=O)[C@@H](N)C(C)(C)C)[C@H]3O)ccc12` [Compound 47, (2R,3S,4R,5R)-5-cyano-2-((2-cyclobutylacetoxy)methyl)-4-hydroxy-5-(4-pentanamidopyrrolo[2,1-f][1,2,4]triazin-7-yl)tetrahydrofuran-3-yl (S)-2-amino-3,3-dimethylbutanoate] yielded a Papp A→B at 90 min (Caco-2) of 4.57 ×10⁻⁶ cm/s, a Papp B→A at 90 min (Caco-2) of 12.2 ×10⁻⁶ cm/s and an efflux ratio at 90 min (Caco-2) of 2.68.

`CCCCOC(C)(C)C(=O)Nc1ncnn2c([C@]3(C#N)O[C@H](COC(=O)CC4CCCCC4)[C@@H](OC(=O)[C@H](N)C(C)(C)C)[C@H]3O)ccc12` [Compound 73, (2R,3S,4R,5R)-5-(4-(2-butoxy-2-methylpropanamido)pyrrolo[2,1-f][1,2,4]triazin-7-yl)-5-cyano-2-((2-cyclohexylacetoxy)methyl)-4-hydroxytetrahydrofuran-3-yl (R)-2-amino-3,3-dimethylbutanoate] gave a Papp A→B at 90 min (Caco-2) of 0.24 ×10⁻⁶ cm/s, a Papp B→A at 90 min (Caco-2) of 0.53 ×10⁻⁶ cm/s and an efflux ratio at 90 min (Caco-2) of 2.23.

For `COC(C)(C)C(=O)Nc1ncnn2c([C@]3(C#N)O[C@H](COC(=O)CC4CCCCCC4)[C@@H](OC(=O)[C@@H](N)C(C)(C)C)[C@H]3O)ccc12` [Compound 63, (2R,3S,4R,5R)-5-cyano-2-((2-cycloheptylacetoxy)methyl)-4-hydroxy-5-(4-(2-methoxy-2-methylpropanamido)pyrrolo[2,1-f][1,2,4]triazin-7-yl)tetrahydrofuran-3-yl (S)-2-amino-3,3-dimethylbutanoate], the Papp A→B at 90 min (Caco-2) was 4.01 ×10⁻⁶ cm/s, the Papp B→A at 90 min (Caco-2) was 2.79 ×10⁻⁶ cm/s and the efflux ratio at 90 min (Caco-2) was 0.7.

Work on `CCCCCC(=O)Nc1ncnn2c([C@]3(C#N)O[C@H](COC(=O)CC4CCC4)[C@@H](OC(=O)[C@@H](N)C(C)(C)C)[C@H]3O)ccc12` [Compound 48, (2R,3S,4R,5R)-5-cyano-2-((2-cyclobutylacetoxy)methyl)-5-(4-hexanamidopyrrolo[2,1-f][1,2,4]triazin-7-yl)-4-hydroxytetrahydrofuran-3-yl (S)-2-amino-3,3-dimethylbutanoate] yielded a Papp A→B at 90 min (Caco-2) of 2.02 ×10⁻⁶ cm/s, a Papp B→A at 90 min (Caco-2) of 4.72 ×10⁻⁶ cm/s and an efflux ratio at 90 min (Caco-2) of 2.34.

`CCCCOC(C)(C)C(=O)Nc1ncnn2c([C@]3(C#N)O[C@H](COC(=O)CC4CCCCCC4)[C@@H](OC(=O)[C@H](N)C(C)(C)C)[C@H]3O)ccc12` [Compound 75, (2R,3S,4R,5R)-5-(4-(2-butoxy-2-methylpropanamido)pyrrolo[2,1-f][1,2,4]triazin-7-yl)-5-cyano-2-((2-cycloheptylacetoxy)methyl)-4-hydroxytetrahydrofuran-3-yl(R)-2-amino-3,3-dimethylbutanoate] gave a Papp A→B at 90 min (Caco-2) of 0.22 ×10⁻⁶ cm/s, a Papp B→A at 90 min (Caco-2) of 0.12 ×10⁻⁶ cm/s and an efflux ratio at 90 min (Caco-2) of 0.52.

Molecule `CC(C)NC(=O)Nc1ncnn2c([C@]3(C#N)O[C@H](COC(=O)CC4CCCCC4)[C@@H](OC(=O)[C@@H](N)C(C)(C)C)[C@H]3O)ccc12` [Compound 4, (2R,3S,4R,5R)-5-cyano-2-((2-cyclohexylacetoxy)methyl)-4-hydroxy-5-(4-(3-isopropylureido)pyrrolo[2,1-f][1,2,4]triazin-7-yl)tetrahydrofuran-3-yl (S)-2-amino-3,3-dimethylbutanoate] has a Papp A→B at 90 min (Caco-2) of 2.5 ×10⁻⁶ cm/s, a Papp B→A at 90 min (Caco-2) of 3.48 ×10⁻⁶ cm/s and an efflux ratio at 90 min (Caco-2) of 1.37.

`CCC(CC)C(=O)Nc1ncnn2c([C@]3(C#N)O[C@H](COC(=O)CC4CCCC4)[C@@H](OC(=O)[C@@H](N)C(C)(C)C)[C@H]3O)ccc12` [Compound 56, (2R,3S,4R,5R)-5-cyano-2-((2-cyclopentylacetoxy)methyl)-5-(4-(2-ethylbutanamido)pyrrolo[2,1-f][1,2,4]triazin-7-yl)-4-hydroxytetrahydrofuran-3-yl (S)-2-amino-3,3-dimethylbutanoate] gave a Papp A→B at 90 min (Caco-2) of 7.61 ×10⁻⁶ cm/s, a Papp B→A at 90 min (Caco-2) of 7.57 ×10⁻⁶ cm/s and an efflux ratio at 90 min (Caco-2) of 0.99.

`CC[C@H](C)C(=O)Nc1ncnn2c([C@]3(C#N)O[C@H](COC(=O)CC4CCCCC4)[C@@H](OC(=O)[C@@H](N)C(C)(C)C)[C@H]3O)ccc12` [Compound 13, (2R,3S,4R,5R)-5-cyano-2-((2-cyclohexylacetoxy)methyl)-4-hydroxy-5-(4-((S)-2-methylbutanamido)pyrrolo[2,1-f][1,2,4]triazin-7-yl)tetrahydrofuran-3-yl (S)-2-amino-3,3-dimethylbutanoate] gave a Papp A→B at 90 min (Caco-2) of 3.16 ×10⁻⁶ cm/s, a Papp B→A at 90 min (Caco-2) of 30.5 ×10⁻⁶ cm/s and an efflux ratio at 90 min (Caco-2) of 9.68.

Work on `CCC(CC)C(=O)Nc1ncnn2c([C@]3(C#N)O[C@H](COC(=O)CC4CCCCCC4)[C@@H](OC(=O)[C@H](N)C(C)(C)C)[C@H]3O)ccc12` [Compound 77, (2R,3S,4R,5R)-5-cyano-2-((2-cycloheptylacetoxy)methyl)-5-(4-(2-ethylbutanamido)pyrrolo[2,1-f][1,2,4]triazin-7-yl)-4-hydroxytetrahydrofuran-3-yl (R)-2-amino-3,3-dimethylbutanoate] yielded a Papp A→B at 90 min (Caco-2) of 1 ×10⁻⁶ cm/s, a Papp B→A at 90 min (Caco-2) of 1.6 ×10⁻⁶ cm/s and an efflux ratio at 90 min (Caco-2) of 1.7.

Molecule `CC[C@H](C)C(=O)Nc1ncnn2c([C@]3(C#N)O[C@H](COC(=O)Cc4ccccc4)[C@@H](OC(=O)[C@@H](N)C(C)(C)C)[C@H]3O)ccc12` [Compound 10, (2R,3S,4R,5R)-5-cyano-4-hydroxy-5-(4-((S)-2-methylbutanamido)pyrrolo[2,1-f][1,2,4]triazin-7-yl)-2-((2-phenylacetoxy)methyl)tetrahydrofuran-3-yl (S)-2-amino-3,3-dimethylbutanoate] has a Papp A→B at 90 min [1] of 0.59 ×10⁻⁶ cm/s, a Papp B→A at 90 min [2] of 0.1 ×10⁻⁶ cm/s and an efflux ratio at 90 min [3] of 0.17.

`CC(C)[C@H](C)C(=O)Nc1ncnn2c([C@]3(C#N)O[C@H](COC(=O)CC4CCCCC4)[C@@H](OC(=O)[C@@H](N)C(C)(C)C)[C@H]3O)ccc12` [Compound 15, (2R,3S,4R,5R)-5-cyano-2-((2-cyclohexylacetoxy)methyl)-5-(4-((S)-2,3-dimethylbutanamido)pyrrolo[2,1-f][1,2,4]triazin-7-yl)-4-hydroxytetrahydrofuran-3-yl (S)-2-amino-3,3-dimethylbutanoate] gave a Papp A→B at 90 min (Caco-2) of 1.93 ×10⁻⁶ cm/s, a Papp B→A at 90 min (Caco-2) of 1.76 ×10⁻⁶ cm/s and an efflux ratio at 90 min (Caco-2) of 0.91.

Molecule `CCC(CC)C(=O)Nc1ncnn2c([C@]3(C#N)O[C@H](COC(=O)CC4CCCCCC4)[C@@H](OC(=O)[C@@H](N)C(C)(C)C)[C@H]3O)ccc12` [Compound 62, (2R,3S,4R,5R)-5-cyano-2-((2-cycloheptylacetoxy)methyl)-5-(4-(2-ethylbutanamido)pyrrolo[2,1-f][1,2,4]triazin-7-yl)-4-hydroxytetrahydrofuran-3-yl (S)-2-amino-3,3-dimethylbutanoate] has a Papp A→B at 90 min (Caco-2) of 1.4 ×10⁻⁶ cm/s, a Papp B→A at 90 min (Caco-2) of 0.89 ×10⁻⁶ cm/s and an efflux ratio at 90 min (Caco-2) of 0.64.

Work on `CCCCOC(C)(C)C(=O)Nc1ncnn2c([C@]3(C#N)O[C@H](COC(=O)CC4CCCCCC4)[C@@H](OC(=O)[C@@H](N)C(C)(C)C)[C@H]3O)ccc12` [Compound 72, (2R,3S,4R,5R)-5-(4-(2-butoxy-2-methylpropanamido)pyrrolo[2,1-f][1,2,4]triazin-7-yl)-5-cyano-2-((2-cycloheptylacetoxy)methyl)-4-hydroxytetrahydrofuran-3-yl(S)-2-amino-3,3-dimethylbutanoate] yielded a Papp A→B at 90 min (Caco-2) of 0.09 ×10⁻⁶ cm/s, a Papp B→A at 90 min (Caco-2) of 7.6 ×10⁻⁶ cm/s and an efflux ratio at 90 min (Caco-2) of 88.8.

`CCOC(C)(C)C(=O)Nc1ncnn2c([C@]3(C#N)O[C@H](COC(=O)Cc4ccccc4)[C@@H](OC(=O)[C@@H](N)C(C)(C)C)[C@H]3O)ccc12` [Compound 6, (2R,3S,4R,5R)-5-cyano-5-(4-(2-ethoxy-2-methylpropanamido)pyrrolo[2,1-f][1,2,4]triazin-7-yl)-4-hydroxy-2-((2-phenylacetoxy)methyl)tetrahydrofuran-3-yl (S)-2-amino-3,3-dimethylbutanoate] gave a Papp A→B at 90 min [1] of 14 ×10⁻⁶ cm/s, a Papp B→A at 90 min [2] of 15.4 ×10⁻⁶ cm/s and an efflux ratio at 90 min [3] of 1.1.
